In patent publication US7205383B2, “Peptide ligands of leukocyte integrins” (Karyon-CTT Ltd., priority 2001, dated 2007):
Bridge positions count the residues as written; N and C are the ends. Peptide text beside a SMILES is read from it.

Columns and labels:
[1] = test system: THP-1 cells on von Willebrand factor; format: cell-based; details: phorbol ester-activated THP-1; read-out: IC50, inhibition of THP-1 cell binding to von Willebrand factor
Protocol: In FIG. 5(A), THP-1 cell binding to von Wirebrand factor was examined in the presence of antibodies against the β2 (7E4), αvβ3 (LM609) or αIIbβ3 (P2) integrins. Following a 60 min incubation in von Willebrand factor-coated wells, the bound cells were determined. The data are the mean ±SD of triplicate wells. The experiment was repeated three times.
(§1) In FIG. 5(B), TRP-1 cells were allowed to bind to microtiter wells coated with von Willebrand factor, type IV collagen, or fibronectin. The C(1–8;3–9) peptide was included as a competitor in the concentrations described. The bound cells were determined by the phosphatase assay. The data are the mean ±SD of triplicate wells and were similar in four other experiments.
(§2) Fibrinogen, fibronectin, von Wrlnebrand factor, type IV collagen, GST fusion proteins, Fc fusion proteins or synthetic peptides were coated on microtiter wells at a concentration of 2 μg in 50 μl TBS unless otherwise indicated. A recombinant von Willebrand factor and a capturing antibody to it kindly provided by Drs. J. J. Sixma and Ph. G. de Groot (University Medical Center Utrecht, the Netherlands) were also used. To prepare polymerized peptides, glutaraldehyde was added at a final concentration of 0.25%. The wells were saturated with 5% BSA and then washed five times with PBS. Prior to adhesion assays, cells were treated with 50 nM 40-Phorbol 12,13-dibutyrate or with 200 μM P1 peptide (Kotovuori et al., 1999) in serum-free medium for 30 min at room temperature to activate the integrins. Alternatively, cells were stimulated for 60 min at 37° C. with the phorbol ester (50 nM) and the C(1–8;3–9) and RGD-4C peptides each at a 2.5 μM concentration, after which the peptides were removed by washing with PBS/2.5 mM EDTA. Cells were incubated in the microtiter wells (100 000 cells per well) for 60 min at 37° C. in the absence or presence of competing peptides, antibodies or EDTA. […] The bound cells were determined by an assay measuring cellular phosphatase activity. […] The absorbance at 405 nm was read on a microplate reader. […]

[2] = test system: THP-1 cells (β2 integrins); details: soluble peptide
Protocol: In FIG. 2(A), phorbol ester-activated THP-1 cells were allowed to bind for 60 min to microtiter wells coated with LLG-C4-GST, GST, or albumin. EDTA was included at a 2.5 mM concentration. The bound cells were determined by the assay measuring cellular phosphatase activity. The data are the means ±SD from triplicate wells.
In FIG. 2(B), THP-1 cells were mixed with each antibody against the β1, β2, β3, αL, αM, or αX integrin subunit as indicated at a concentration of […]. An aliquot of cells was then transferred to wells coated with LLG-C4-GST and incubated for 60 min at 37° C. Following washing the bound cells were determined by the phosphatase assay. The results are the mean % adhesion ±SD of 2–4 independent experiments each done in triplicate wells.
In FIG. 3(A), TBP-1 cells were mixed in suspension with the peptide containing either the C(1–8;3–9) or C(1–9;3–8) disulfide. The final concentrations of the peptides are indicated. Cells were then incubated for 60 min at 37° C. in microtiter wells coated with LLG-C4-GST. After washing the wells, the bound cells were quantitated by the phosphatase assay. The results are the mean ±SD from triplicate wells.
In FIG. 3(B), THP-1 cell binding to LLG-C4-GST was examined in the presence of the C(1–8;3–9), CLLGC (SEQ ID NO: 4) or the CAAGC (SEQ ID NO: 5) peptide. The synthetic peptides were used at the concentrations indicated. Following a 60 min incubation the wells were washed and the bound cells were determined by the phosphatase assay.
Fibrinogen, fibronectin, von Wrlnebrand factor, type IV collagen, GST fusion proteins, Fc fusion proteins or synthetic peptides were coated on microtiter wells at a concentration of 2 μg in 50 μl TBS unless otherwise indicated. A recombinant von Willebrand factor and a capturing antibody to it kindly provided by Drs. J. J. Sixma and Ph. G. de Groot (University Medical Center Utrecht, the Netherlands) were also used. To prepare polymerized peptides, glutaraldehyde was added at a final concentration of 0.25%. The wells were saturated with 5% BSA and then washed five times with PBS. Prior to adhesion assays, cells were treated with 50 nM 40-Phorbol 12,13-dibutyrate or with 200 μM P1 peptide (Kotovuori et al., 1999) in serum-free medium for 30 min at room temperature to activate the integrins. Alternatively, cells were stimulated for 60 min at 37° C. with the phorbol ester (50 nM) and the C(1–8;3–9) and RGD-4C peptides each at a 2.5 μM concentration, after which the peptides were removed by washing with PBS/2.5 mM EDTA. Cells were incubated in the microtiter wells (100 000 cells per well) for 60 min at 37° C. in the absence or presence of competing peptides, antibodies or EDTA. Unbound cells were removed by gently washing with PBS and pressing the plate against paper towels. The bound cells were determined by an assay measuring cellular phosphatase activity. Briefly, 100 μl of 50 mM sodium acetate buffer, pH 5.0, containing 1% Triton X-100 and 6 mg/ml p-nitrophenyl phosphate was added per well and incubated for 1 h at 37° C. The reaction was stopped with 50 μl of 1 M NaOH. The absorbance at 405 nm was read on a microplate reader. Alternatively, the attached cells were stained with Crystal Violet essentially as described (Mould et al., 1995).

[3] = test system: THP-1 cells on type IV collagen; experiment: THP-1 cell adhesion on type IV collagen; format: cell-based; details: phorbol ester-activated THP-1; read-out: IC50, inhibition of THP-1 adhesion on type IV collagen
Protocol: as §1
as §2, with “integrins.” for “integrins. Alternatively, cells were stimulated for 60 min at 37° C. with the phorbol ester (50 nM) and the C(1–8;3–9) and RGD-4C peptides each at a 2.5 μM concentration, after which the peptides were removed by washing with PBS/2.5 mM EDTA. Cells were incubated in the microtiter wells (100 000 cells per well) for 60 min at 37° C. in the absence or presence of competing peptides, antibodies or EDTA.”

[4] = test system: αLβ2 integrin-mediated binding of Jurkat cells to ICAM-1-Fc; experiment: Jurkat cell adhesion to ICAM-1-Fc; format: cell-based
Protocol: In FIG. 4(A), Jurkat cells were allowed to attach to immobilized ICAM-1-Fc in microtiter wells in the absence or presence of LLG-C4 peptides. Following a 45 min incubation, the unbound cells were removed by immersing the microtiter plate upside down on a decanter containing PBS, and the attached cells were stained with Crystal Violet.
as §2, with “integrins.” for “integrins. Alternatively, cells were stimulated for 60 min at 37° C. with the phorbol ester (50 nM) and the C(1–8;3–9) and RGD-4C peptides each at a 2.5 μM concentration, after which the peptides were removed by washing with PBS/2.5 mM EDTA. Cells were incubated in the microtiter wells (100 000 cells per well) for 60 min at 37° C. in the absence or presence of competing peptides, antibodies or EDTA.”

[5] = Water solubility of the peptides; format: physicochemical; details: compared with the C(1–9;3–8) peptide
[6] = test system: T cells binding to Eahy926 endothelial cells (ICAM-1); experiment: T cell binding to TNF-α-stimulated endothelial cell monolayer; format: cell-based; details: peptide 50 μM, 45 min
Protocol: In FIG. 4(B), T cells were allowed to bind to TNF-α-stimulated Eahy endothelial cell monolayers that were grown on microtiter wells. LLG-C4 or RGD-4C was included at a concentration of 50 μM. After a 45 min incubation, the unbound cells were removed by immersing the microtiter plate in a PBS solution, and the bound T cells were determined by the phosphatase assay. The data are the mean ±SD of triplicate wells.
To study T cell binding to an endothelial cell monolayer, Eahy926 endothelial cells were plated on microtiter plates at a density of 5×10^4 cells per well and grown for three days. To stimulate the production of ICAM-1, the cells were further grown for 16 h in the presence of TNF-α at a concentration of 10 ng/ml. T cells (1.5×10^5 per well) were allowed to bind to Eahy926 cells first for 30 min at 4° C., then 15 min at 37° C. The unbound T cells were removed by immersing the microtiter plate up side down in PBS. The bound cells were determined by the phosphatase assay.

[7] = test system: THP-1 cells on fibrinogen; experiment: THP-1 cell adhesion to fibrinogen; format: cell-based
Protocol: Following a 60 min incubation the bound cells were determined by the phosphatase assay. The results are the mean ±SD of triplicate wells and were similar in two other experiments.
In FIG. 6(B), to activate integrins, THP-1 cells were stimulated both with phorbol ester (50 nM) and the RGD-4C and C(1–8;3–9) peptides (each 2.5 μM for 1 h. After washing the cells were allowed to bind to fibrinogen-coated wells in the presence of C(1–8;3–9) or RGD-4C or both peptides at the concentrations indicated. After a 30-min incubation the bound cells were determined. The results are the mean ±SD of triplicate wells and were similar in two other experiments. At some data points the SD values are too small to be seen.
Fibrinogen, fibronectin, von Wrlnebrand factor, type IV collagen, GST fusion proteins, Fc fusion proteins or synthetic peptides were coated on microtiter wells at a concentration of 2 μg in 50 μl TBS unless otherwise indicated. A recombinant von Willebrand factor and a capturing antibody to it kindly provided by Drs. J. J. Sixma and Ph. G. de Groot (University Medical Center Utrecht, the Netherlands) were also used. To prepare polymerized peptides, glutaraldehyde was added at a final concentration of 0.25%. […] The bound cells were determined by an assay measuring cellular phosphatase activity. […] The absorbance at 405 nm was read on a microplate reader. […]

THP-1 cells [8] = experiment: Transwell cell migration assay, fibrinogen-coated filters; format: cell-based; details: peptide 200 μM, 10% serum, 18 h
Protocol: In FIG. 6(C), Transwell filters were coated both on the upper and lower surface with fibrinogen, or left uncoated, and then saturated with BSA. TBP-1 cells (5×10^4 per filter) were plated on the upper surface of the filter in 10% serum-containing medium. The concentrations of C(1–8;3–9) and C(1–9;3–8) were 200 μM. Following a 18 hour-culture, the cells migrated underneath the filter were determined. The cells were fixed, stained, and then counted under a microscope.
The in vitro migration of THP-1 cells was studied in closely physiological conditions containing 10% serum to not interfere with adhesive properties of cells. Both the upper and lower surfaces of 8 μm pore size Transwell filters were coated with fibrinogen, LLG-C4-GST, or GST at a concentration of 40 μg/ml overnight at 4° C. Free binding sites were blocked by incubation with 5% BSA/TBS. THP-1 cells (5×10^4 in 100 μl) were plated on the upper compartment in 10% FCS-containing medium. The C(1–8;3–9) or C(1–9;3–8) peptide were included at a concentration of 200 μM. The lower compartment was filled with 750 μl of 10% FCS-containing medium. Following a culture for 18 h at 37° C. the filters were immersed in methanol for 15 min, in water for 10 s, and in 0.1% toluidine blue for 5 min. […] Cells were removed from the upper surface of the filter with a cotton swap, and cells migrated on the lower surface were counted microscopically. […]

THP-1 cells [9] = experiment: THP-1 cell adhesion on wells coated with synthetic peptides; format: cell-based
Protocol: In FIG. 2(C), the C(1–8;3–9) and C(1–9;3–8) peptides were coated on microtiter wells by incubating overnight at a concentration of 40 μg/ml in TBS in the absence or presence of glutaraldehyde. Free binding sites on plastic were then blocked with 5% BSA. THP-1 cells ([…]) were allowed to bind for 60 min at 37° C. […] The experiment was repeated twice.
as §2, with “integrins.” for “integrins. Alternatively, cells were stimulated for 60 min at 37° C. with the phorbol ester (50 nM) and the C(1–8;3–9) and RGD-4C peptides each at a 2.5 μM concentration, after which the peptides were removed by washing with PBS/2.5 mM EDTA. Cells were incubated in the microtiter wells (100 000 cells per well) for 60 min at 37° C. in the absence or presence of competing peptides, antibodies or EDTA.”

Compound: CC(C)C[C@@H]1NC(=O)[C@H](CC(C)C)NC(=O)[C@H](Cc2ccccc2)NC(=O)[C@@H]2CSSC[C@@H](C(=O)O)NC(=O)[C@H](CSSC[C@H](N)C(=O)N3CCC[C@H]3C(=O)N2)NC(=O)CNC1=O [C(1–8;3–9), CPCFLLGCC] (H-CPCFLLGCC-OH; disulfide 1-8, 3-9; N-terminus and C-terminus assumed)
- IC50 [1]: ~20 µM
- IC50 ([2]; read-out: IC50, inhibition of THP-1 cell adhesion on LLG-C4-GST, 60 min at 37° C.): 20 µM
- IC50 [3]: ~200 µM
- IC50 ([4]; ICAM-1-Fc directly coated or captured via protein A, read-out: IC50, inhibition of Jurkat cell adhesion to ICAM-1-Fc): ~80 µM
- water solubility [5]: poorer water solubility

Compound: ACDCRGDCFCG [RGD-4C, RGD-containing peptide, ligand of several β1 and β3 integrins, reference compound]
- effect on T cell binding to TNF-α-stimulated endothelial cells [6]: no effect
- inhibition of THP-1 adhesion on fibrinogen after peptide pre-stimulation ([7]; cells pre-stimulated with phorbol ester (50 nM) and RGD-4C and C(1–8;3–9) each 2.5 μM, 30-min incubation): more effectively than C(1–8;3–9)

Compound: CPCFLLGCC [C(1–9;3–8), LLG-C4 conformer with disulfide bridges C1–C9 and C3–C8]
- fold less active than C(1–8;3–9), THP-1 adhesion on LLG-C4-GST [2]: 20 fold
- inhibition of Jurkat cell adhesion to ICAM-1-Fc ([4]; compared with C(1–8;3–9)): several fold less active and had hardly any effect
- inhibition of THP-1 adhesion to fibrinogen ([7]; phorbol ester-stimulated THP-1, 60 min): no effect
- inhibition of THP-1 cell migration through fibrinogen-coated filter (THP-1 cells [8]): inhibited only partially
- THP-1 cell binding to coated peptide crosslinked with glutaraldehyde (THP-1 cells [9]; peptide coated at 40 μg/ml in presence of glutaraldehyde): gave no cell binding
- THP-1 cell binding to coated peptide (THP-1 cells [9]; peptide coated at 40 μg/ml, without glutaraldehyde): failed to bind
